Measured values taken from patent US20240245603A1, “HIGH LOADING ORAL FILM FORMULATION” (INTELGENX CORP., priority 2021, published 2024).

Columns and labels:
[1] = Solubility studies of Maropitant in solvents and solubility enhancers (visual inspection); assay type: physicochemical
Method: The following solubility studies were performed with Maropitant drug substance in various solvents and solubility enhancers. […] During solubility studies, the API was solubilized stepwise, in a series of permitted solvent (or a combination of solvent) with and without solubility enhancer. The solvent system was based on methanol, ethanol, isopropyl alcohol (IPA), acetone, methyl ethyl ketone (MEK), and water. Solubility enhancers included Maiscine CC (MGO) (HLB 1), medium chain triglyceride (MCT) oil (HLB 1), Labrafil 1944 cs (HLB 9), Labrafil 2125CS (HLB 9), Glycerine, Tween 20 (HLB 16,7), PEG 300, Propylene glycol, SLS (HLB 40). The resulting mixture was visually inspected to evaluate solubilization. The main equipment used were glass bottles, magnetic stir bars, stirrer plate, and sonicator.

[2] = Permeability of Maropitant through artificial membranes, Franz cell model; assay type: in vitro ADME
Method: Numerous experiments were performed to improve the permeability of Maropitant through artificial membranes using the Franz cell model. Initially, solutions and suspensions of Maropitant and different acids at different ratios were prepared.
Based on the results obtained with the solution/suspension of Maropitant at different pH, Maropitant oral films with and without citric acid were prepared.

[3] = cited from earlier work

With `COc1ccc(C(C)(C)C)cc1CN[C@H]1C2CCN(CC2)[C@H]1C(c1ccccc1)c1ccccc1` [Maropitant] the Solubility ([1]; Test 1, media Methanol) was “Up to 30 mg/1 g of solvent”, the Solubility ([1]; Test 2, media Ethanol) was “Up to 15 mg/1 g of solvent” and the Solubility ([1]; Test 3, media Isopropanol) was “insoluble”. The Solubility ([1]; Test 4, media Acetone) was “Up to 120 mg/1 g of solvent”, the Solubility ([1]; Test 5, media MEK) was “Up to 150 mg/1 g of solvent” and the Solubility ([1]; Test 6, MEK:Maiscine CC 40:2) was “Up to 180 mg/1 g of solvent”. The Solubility ([1]; Test 7, MEK:Maiscine CC 40:3) was “Up to 220 mg/1 g of solvent”, the Solubility ([1]; Test 8, MEK:MCT 40:2) was “Up to 220 mg/1 g of solvent” and the Solubility ([1]; Test 9, MEK:MCT 40:3) was “Up to 240 mg/1 g of solvent”. For the same molecule, the Solubility ([1]; Test 10, MEK:PEG 300 40:2) was “Up to 180 mg/1 g of solvent”, the Solubility ([1]; Test 11, MEK:MCT:PEG 300 40:3:2) was “Up to 240 mg/1 g of solvent” and the Solubility ([1]; Test 12, MEK:Labrafil 1944CS 40:2) was “Up to 220 mg/1 g of solvent”. The Solubility ([1]; Test 13, MEK:Labrafil 1944CS:MCT 40:3:2) was “Up to 220 mg/1 g of solvent”, the Solubility ([1]; Test 14, MEK:Labrafil 1944CS:PEG 300 40:3:2) was “Up to 220 mg/1 g of solvent” and the Solubility ([1]; Test 15, MEK:Glycerine 40:2) was “Up to 135 mg/1 g of solvent”. The Solubility ([1]; Test 16, MEK:Tween 20 40:2) was “Up to 180 mg/1 g of solvent”, the Solubility ([1]; Test 17, MEK:Methanol 40:10) was “Up to 155 mg/1 g of solvent” and the Solubility ([1]; Test 18, MEK:Methanol:MCT 40:10:3) was “Up to 235 mg/1 g of solvent”. For the same molecule, the Solubility ([1]; Test 19, MEK:Water 40:4.5) was “insoluble”, the Solubility ([1]; Test 20, MEK:Methanol:Labrafil 2125CCS:Tween 20 40:10:4:4) was “Up to 317 mg/1 g of solvent” and the “permeation of Maropitant solutions/suspensions at different pH” value ([2]; Maropitant/citric acid pH 4.24, 5.22, 6.22 and phosphate citrate buffer pH 8.0, FIG. 9) was “acidic environment promotes Maropitant permeation”. For the same molecule, the “Maropitant permeability of films with versus without citric acid” value ([2]; oral films with and without citric acid) was “improved”.

For `CN1CC(=O)N2[C@H](c3ccc4c(c3)OCO4)c3[nH]c4ccccc4c3C[C@@H]2C1=O` [Tadalafil], the solubility in water [3] is listed as “practically insoluble”.
